Broadly, the EC50 is the concentration at which the effect is half-maximal. Usually solubility stands for the dissolved amount per volume that the medium holds. Lower therefore signals a poorly soluble substance. As a reminder, the IC50 is the midpoint of a concentration-inhibition curve.

EC50, solubility and IC50 data for three compounds are collected here from US9593149B2, “Amylin and calcitonin receptor agonist” (Novo Nordisk A/S, priority 2014, dated 2017).

For series [1], the target named is T1, human calcitonin (a) receptor, BHK570 cells (Homo sapiens, UniProt P30988).
T1 construct: host or cells: BHK570
T1 sequence (P30988 25-474): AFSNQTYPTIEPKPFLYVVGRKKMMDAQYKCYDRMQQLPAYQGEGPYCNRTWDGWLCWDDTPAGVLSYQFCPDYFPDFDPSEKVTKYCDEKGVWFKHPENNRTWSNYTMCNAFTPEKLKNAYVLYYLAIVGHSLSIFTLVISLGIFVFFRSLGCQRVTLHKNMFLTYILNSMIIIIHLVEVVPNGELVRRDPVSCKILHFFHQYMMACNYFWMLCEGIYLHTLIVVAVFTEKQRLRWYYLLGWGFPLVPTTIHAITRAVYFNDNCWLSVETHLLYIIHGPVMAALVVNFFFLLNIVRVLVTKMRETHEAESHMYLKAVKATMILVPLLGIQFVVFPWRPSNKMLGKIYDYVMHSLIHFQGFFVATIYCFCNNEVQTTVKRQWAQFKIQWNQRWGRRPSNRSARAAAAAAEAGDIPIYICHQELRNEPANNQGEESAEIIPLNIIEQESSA
The series can be described thus: Assay (II)b functional CRE-luciferase assay without albumin, human calcitonin receptor. Type of series: cell-based. To be noted: Tested without HSA; read-out: hCTR funct. EC50. The method, boiled down:
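BHK570 cells stably expressing human calcitonin receptor with CRE-luciferase reporter, plus RAMP-3 for the amylin 3(a) line. Cells stimulated 3 hours at 37 °C in albumin-free assay medium (0.1% ovalbumin, 10 mM Hepes pH 7.4); cAMP-driven luciferase read by luminescence.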

Series [2] is described as follows: Assay (IV) determination of solubility. It is filed as physicochemical. How it is done:
Assay (IV)—Determination of Solubility
The mimylin peptide was dissolved in water at ˜500 nmol/ml and mixed 1:1 with a series of buffers (100 mM glycylglycine pH 3.0, 100 mM glycylglycine pH 4.0, 100 mM glycylglycine pH 5.0, 100 mM bistrispropane pH 6.0, 100 mM bistrispropane pH 6.5, 100 mM bistrispropane pH 7.0, 100 mM bistrispropane pH 7.5, 100 mM bistrispropane pH 8.0).

The target in series [3] is T2, human amylin receptor (human calcitonin receptor + human RAMP3), BHK tk'ts 13 cells (Homo sapiens, UniProt O60896+P30988).
T2 construct: expressed in transfected cells; host or cells: BHK tk'ts 13
The series can be described thus: Assay (Va) binding to the human amylin receptor (whole cell). The conditions noted are these: read-out: hAmylin-R binding IC50. How it is done:
The day before the assay the cells were Seeded into Poly-D-Lysin coated 384W Opaque White, BD BioCoat plates (10000 cells/well) and Incubated overnight at 37° C., 5% CO2, 95% humidity.

The target in series [4] is T3, human calcitonin receptor, BHK tk'ts 13 cells (Homo sapiens, UniProt P30988).
T3 construct: expressed in transfected cells; host or cells: BHK tk'ts 13
T3 sequence (P30988 25-474): T1 sequence (P30988 25-474)
Briefly: Assay (VIIa) binding to the human calcitonin receptor (whole cell). The conditions noted are these: read-out: hCT-R binding IC50. How it is done: Assay (VIIa)—Determination of Binding to the Human Calcitonin Receptor (Whole Cell Binding)
The binding assay was performed using a BHK tk'ts 13 cell line was stably transfected with the human calcitonin receptor, and a CRE-responsive luciferase reporter gene.
The day before the assay the cells were Seeded into Poly-D-Lysin coated 384W Opaque White, BD BioCoat plates (10000 cells/well) and Incubated overnight at 37° C., 5% CO2, 95% humidity. Then, the cells were washed in HBSS (4° C.), and incubated overnight at 4° C. in a binding buffer containing test compounds, 50 pM [125I]-human calcitonin, media w/o phenol red, 500 ml 0.1% ovalbumin (5 ml 10% ovalbumin) 10 mM Hepes (5 ml 1M) 1× Glutamin (5 ml 100×) 1% P/S (5 ml 100%) Complete (1 tablet/50 ml) 0.1% Pluronic F68®. The morning after, the plates were washed three times in HBSS (4° C.), and lyzed in Lysis buffer (0.1 M NaOH), 1% SDS. Scintillation cocktail (MicroScint40®) was added and the plates were shaken at 500 rpm for a short period. The plate was incubated at room temperature in the dark for 1 hour and Read on a TopCounter™ (Packard). The IC50 was calculated using (one site binding competition analysis) GraphPad Prism5 as a measure of receptor affinity. Assay (VIII)—Determination of Binding to the Rat Calcitonin Receptor

Series [5] addresses T4, human amylin 3(a) receptor (human calcitonin receptor + RAMP-3), BHK570 cells (Homo sapiens, UniProt O60896+P30988).
T4 construct: host or cells: BHK570
The series can be described thus: Assay (II)b functional CRE-luciferase assay without albumin, human amylin receptor. To be noted: Tested without HSA; read-out: hAmylin-R funct. EC50. It is filed as cell-based. The method, boiled down: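 Agonism measured as CRE-driven luciferase luminescence after 3 h sample exposure at 37 °C, without albumin (0.1% ovalbumin, Hepes pH 7.4 medium). Reporter cells: BHK570 carrying human calcitonin receptor, co-transfected with RAMP-3 to form the amylin 3(a) receptor.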

The target of series [6] is T4, human amylin 3(a) receptor (human calcitonin receptor + RAMP-3), BHK570 cells. Briefly: Assay (II)a functional CRE-luciferase assay with albumin, human amylin receptor. It is filed as cell-based. To be noted: Tested with HSA; read-out: hAmylin-R funct. EC50. An excerpt: Assay(II)a—Human Calcitonin and Amylin Receptor Assay
1. Luciferase Assay Outline
Activation of calcitonin and amylin (co-expression of calcitonin receptor and receptor activity modifying proteins (RAMP)) receptors lead to increased intracellular concentrations of cAMP. Consequently, transcription is activated by promoters containing multiple copies of the cAMP response element (CRE). It is thus possible to measure amylin activity by the use of a CRE luciferase reporter gene introduced into BHK cells also expressing calcitonin or amylin receptors.
2. Construction of Calcitonin (a)—and Amylin 3(a)—Receptor/CRE-Luc Cell Line.
A BHK570 cell line was stably transfected with the human calcitonin receptor and a CRE-responsive luciferase reporter gene. The cell line was further transfected with RAMP-3, using standard methods. This turns the calcitonin receptor into an amylin 3(a) receptor. Methotrexate, Neomycin, and Hygromycin are selection markers for luciferase, the calcitonin receptor, and RAMP-3, respectively.
To perform activity assays, BHK calcitonin (a) receptor- or amylin 3(a)-receptor/CRE-luc cells were seeded in white 96 well culture plates at a density of about 20.000 cells/well. […] After incubation overnight at 37° C. and 5% CO2, the growth medium was replaced by 50 μl/well assay medium (DMEM (without phenol red), Glutamax™, 10% FBS, and 10 mM Hepes, pH 7.4). Further, 50 μl/well of standard or sample in assay buffer were added.
After 3 hours incubation at 37° C. and 5% CO2, the assay medium with standard or sample were removed and replaced by 100 μl/well PBS. Further, 100 μl/well LucLite™ was added. The plates were sealed and incubated at room temperature for 30 minutes. Finally, luminescence was tested on a TopCounter (Packard) in SPC (single photon counting) mode.

Values after ≈ are worked out from the molar mass of the structure shown. Numbered stars: 1 amine (or outer) side, 2 acyl side, 3 side chain; on linkers, the order of the positions; unused ones are H or OH. Peptide text beside a SMILES is read from it. * marks the point of attachment. C18 diacid = O=C(O)CCCCCCCCCCCCCCCCC(=O)*; γGlu = O=C(O)[C@H](CCC(=O)[*:2])N[*:1]

T4 sequence (O60896 24-148, one chain of several): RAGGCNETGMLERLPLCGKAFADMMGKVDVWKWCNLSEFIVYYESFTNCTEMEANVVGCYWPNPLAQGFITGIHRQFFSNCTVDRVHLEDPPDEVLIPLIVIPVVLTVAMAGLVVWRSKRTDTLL
T2 sequence (O60896 24-148, one chain of several): as above

Regarding `CC[C@H](C)[C@H](NC(=O)[C@H](C)NC(=O)[C@@H](NC(=O)[C@H](CO)NC(=O)[C@@H](NC(=O)[C@H](CCC(=O)O)NC(=O)[C@H](CO)NC(=O)[C@H](C)NC(=O)[C@H](CCC(=O)O)NC(=O)CCCCCCCCCCCCCCCCC(=O)O)[C@@H](C)CC)[C@@H](C)O)C(=O)N[C@@H](CC(C)C)C(=O)NCC(=O)N[C@@H](CCCNC(=N)N)C(=O)N[C@@H](CC(C)C)C(=O)N[C@@H](CO)C(=O)N[C@@H](C)C(=O)N[C@@H](CCC(=O)O)C(=O)N[C@@H](CC(C)C)C(=O)N[C@@H](Cc1c[nH]cn1)C(=O)N[C@@H](CCC(=O)O)C(=O)N[C@@H](CC(C)C)C(=O)N[C@@H](C)C(=O)N[C@H](C(=O)N[C@@H](CC(C)C)C(=O)N1CCC[C@H]1C(=O)N[C@@H](CCCNC(=N)N)C(=O)N[C@H](C(=O)N[C@@H](CCC(=O)O)C(=O)N[C@H](C(=O)NCC(=O)N1CCC[C@H]1C(=O)N[C@@H](CCC(=O)O)C(=O)N[C@@H](CO)C(=O)N1CCC[C@H]1C(N)=O)[C@@H](C)O)[C@@H](C)O)[C@@H](C)O` [compound 25, [N-terminal(C18 diacid), 5I, 9I]mimylin], the EC50 in series [1] worked out at 0.007 nM; in series [5], 0.01 nM. Moreover, the solubility at 18 h in series [2] (bistrispropane buffer, pH 6.5) was not below 200 µM; in series [2] (bistrispropane buffer, pH 7.5), not below 200 µM; in series [2] (bistrispropane buffer, pH 6.0) it was not below 200 µM; in series [2] (bistrispropane buffer, pH 7.0), not below 200 µM; in series [2] (bistrispropane buffer, pH 8.0), not below 200 µM; in series [2] (glycylglycine buffer, pH 3.0) it was not below 200 µM. The solubility at 18 h is 218 µM (≈ 822 µg/mL) in series [2] (glycylglycine buffer, pH 4.0) and not below 200 µM in series [2] (glycylglycine buffer, pH 5.0). In addition, the IC50 in series [3] was 0.4 nM; in series [4] it was 0.413 nM.
Take `CC(C)C[C@H](NC(=O)[C@H](C)NC(=O)[C@H](C)NC(=O)[C@@H](NC(=O)[C@H](CO)NC(=O)[C@H](CC(C)C)NC(=O)[C@H](CCC(=O)O)NC(=O)[C@H](CO)NC(=O)[C@H](C)NC(=O)[C@@H](N)CCC(=O)O)[C@@H](C)O)C(=O)NCC(=O)N[C@@H](CCCNC(=N)N)C(=O)N[C@@H](CC(C)C)C(=O)N[C@@H](CO)C(=O)N[C@@H](C)C(=O)N[C@@H](CCC(=O)O)C(=O)N[C@@H](CC(C)C)C(=O)N[C@@H](Cc1c[nH]cn1)C(=O)N[C@@H](CCC(=O)O)C(=O)N[C@@H](CC(C)C)C(=O)N[C@@H](C)C(=O)N[C@H](C(=O)N[C@@H](CC(C)C)C(=O)N1CCC[C@H]1C(=O)N[C@@H](CCCNC(=N)N)C(=O)N[C@H](C(=O)N[C@@H](CCC(=O)O)C(=O)N[C@H](C(=O)NCC(=O)N1CCC[C@H]1C(=O)N[C@@H](CCC(=O)O)C(=O)N[C@@H](CO)C(=O)N1CCC[C@H]1C(N)=O)[C@@H](C)O)[C@@H](C)O)[C@@H](C)O` [Ex. #1, mimylin] (H-EASELSTAALGRLSAELHELATLPRTETGPESP-NH2): the results for the IC50 in series [3] and in series [4] were 0.511 nM and 0.431 nM, respectively. The EC50 in series [5] worked out at 0.003 nM.
As to `CC(C)C[C@H](NC(=O)[C@H](CCC(=O)O)NC(=O)[C@H](Cc1c[nH]cn1)NC(=O)[C@H](CC(C)C)NC(=O)[C@H](CCC(=O)O)NC(=O)[C@H](C)NC(=O)[C@H](CO)NC(=O)[C@H](CC(C)C)NC(=O)[C@H](CCCNC(=N)N)NC(=O)CNC(=O)[C@H](CC(C)C)NC(=O)[C@@H](NC(=O)[C@H](C)NC(=O)[C@@H](NC(=O)[C@@H](NC(=O)[C@H](CC(C)C)NC(=O)[C@H](CCC(=O)O)NC(=O)[C@H](CO)NC(=O)[C@H](C)NC(=O)CC[C@H](NC(=O)CCCCCCCCCCCCCCCCC(=O)O)C(=O)O)[C@@H](C)O)[C@@H](C)O)C(C)C)C(=O)N[C@@H](C)C(=O)N[C@H](C(=O)N[C@@H](CC(C)C)C(=O)N1CCC[C@H]1C(=O)N[C@@H](CCCNC(=N)N)C(=O)N[C@H](C(=O)N[C@@H](CCC(=O)O)C(=O)N[C@H](C(=O)NCC(=O)N[C@@H](CO)C(=O)NCC(=O)N[C@H](C(=O)N1CCC[C@H]1C(N)=O)[C@@H](C)O)[C@@H](C)O)[C@@H](C)O)[C@@H](C)O` [compound 94, [N-terminal(C18 diacid-gGlu), des1, 6T, 9V, 30S, 31G, 32T]mimylin] ({C18 diacid-γGlu}-ASELTTAVLGRLSAELHELATLPRTETGSGTP-NH2), the 50% effective concentration (EC50) in series [1] stood at 0.03 nM; in series [6], 0.03 nM; in series [5] it was 0.042 nM. Further, the solubility at 18 h in series [2] (bistrispropane buffer, pH 6.5) is not below 200 µM; in series [2] (bistrispropane buffer, pH 7.5), not below 200 µM; in series [2] (bistrispropane buffer, pH 6.0) it was not below 200 µM; in series [2] (bistrispropane buffer, pH 7.0), not below 200 µM; in series [2] (bistrispropane buffer, pH 8.0) it was not below 200 µM; in series [2] (glycylglycine buffer, pH 3.0) it was not below 200 µM. The solubility at 18 h is not below 200 µM in series [2] (glycylglycine buffer, pH 4.0) and not below 200 µM in series [2] (glycylglycine buffer, pH 5.0). Further, the IC50 in series [3] was determined as 0.652 nM; in series [4], 0.651 nM.
